Assay results as given in US20240368163A1, “COMPOUNDS AND METHODS FOR MODULATING SPLICING” (REMIX THERAPEUTICS INC., priority 2021, published 2024).
Read-outs that look alike come from different tables or passages of the source.

Legend:
Assay type in all cases: cell-based, human
[1] = system: Target C; assay: Splicing RT-qPCR panel, Target C canonical junction (CJ) mRNA; details: RT-qPCR panel, canonical junction mRNA, compound concentration having 50% response in CJ decrease, read-out: Target C IC50 (decrease in CJ mRNA levels)
How it was run: (§1)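 A673 or K562 cells were treated 24 h at 37 °C with an 11-point 3-fold dilution series (top 10 uM final, DMSO ≤0.25%). Lysates underwent one-step RT-qPCR for canonical (CJ) and alternative (AJ) junctions; Ct normalized to GAPDH, GUSB or PPIA and DMSO control via 2^(−ΔΔCt), expressed as percentage response.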

[2] = system: Target C; assay: HiBiT protein abundance assay, Target C; details: Table 13A, modified K562 cells
How it was run: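 Knock-in HiBiT clones, 10000/well; 10-pt 3-fold titration, top 10 μM final; DMSO ≤0.25%; 24 h, 37 °C, 5% CO2. Lytic HiBiT luminescence readout. 4PL fit, IC50 = concentration giving 50% of untreated abundance.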

[3] = system: HTT; assay: Splicing RT-qPCR assay, HTT mRNA canonical junction (CJ) and alternative junction (AJ); details: for AC50: increase in AJ mRNA
How it was run: as §1

[4] = system: MYB; assay: Splicing RT-qPCR assay, MYB mRNA canonical junction (CJ) and alternative junction (AJ); details: for AC50: increase in AJ mRNA
How it was run: as §1

[5] = system: HTT; assay: HiBiT protein abundance assay, HTT; details: Table 13A, modified K562 cells
How it was run: (§2)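 Luminescent readout from lytic HiBiT/LgBiT complementation reports endogenous tagged protein level in engineered K562 cells. Compounds dosed 24 h, top 10 μM final, 3-fold steps, 10 points. IC50 is the concentration giving 50% of untreated-control abundance, from 4-parameter logistic fit.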

[6] = system: MYB; assay: HiBiT protein abundance assay, MYB; details: Table 13A, modified K562 cells
How it was run: as §2

[7] = system: SMN2; assay: Splicing RT-qPCR panel, SMN2 canonical junction (CJ) mRNA; details: RT-qPCR panel, canonical junction mRNA, compound concentration having 50% response in CJ decrease, read-out: SMN2 IC50 (decrease in CJ mRNA levels)
How it was run: as §1

[8] = RT-qPCR panel, canonical junction mRNA, compound concentration having 50% response in CJ decrease, read-out: HTT IC50 (decrease in CJ mRNA levels)
[9] = decrease in CJ mRNA, A673 or K562 cells, 24 hours treatment, RT-qPCR, read-out: HTT CJ IC50
[10] = RT-qPCR panel, canonical junction mRNA, compound concentration having 50% response in CJ decrease, read-out: MYB IC50 (decrease in CJ mRNA levels)
[11] = decrease in CJ mRNA, A673 or K562 cells, 24 hours treatment, RT-qPCR, read-out: MYB CJ IC50
[12] = Homo sapiens, 24 h, decrease in CJ mRNA, A673 or K562 cells, 24 hours treatment, RT-qPCR, read-out: HTT CJ IC50
[13] = Homo sapiens, 24 h, A673 or K562 cells, 24 hours treatment, RT-qPCR
[14] = Homo sapiens, RT-qPCR panel, canonical junction mRNA, compound concentration having 50% response in CJ decrease, read-out: HTT IC50 (decrease in CJ mRNA levels)
[15] = Homo sapiens, 24 h, decrease in CJ mRNA, A673 or K562 cells, 24 hours treatment, RT-qPCR, read-out: MYB CJ IC50
[16] = Homo sapiens, RT-qPCR panel, canonical junction mRNA, compound concentration having 50% response in CJ decrease, read-out: MYB IC50 (decrease in CJ mRNA levels)

Row | Structure (SMILES) | IC50 [1] [nM] | IC50 ([2]; 24 hours) [nM] | IC50 [3, 8] [nM] | IC50 [3, 9] [nM] | IC50 [4, 10] [nM] | IC50 [4, 11] [nM] | IC50 ([5]; 24 hours) [nM] | IC50 ([6]; 24 hours) [nM] | IC50 [7] [nM] | IC50 ([1]; Homo sapiens) [nM] | IC50 ([2]; Homo sapiens, K562, 24 h) [nM] | IC50 [3, 12] [nM] | AC50 [3, 13] [nM] | IC50 [3, 14] [nM] | IC50 [4, 15] [nM] | AC50 [4, 13] [nM] | IC50 [4, 16] [nM] | IC50 ([5]; Homo sapiens, K562, 24 h) [nM] | IC50 ([6]; Homo sapiens, K562, 24 h) [nM] | IC50 ([7]; Homo sapiens) [nM]
1 | CN(c1ccc(-c2cc(F)c(-c3cnn(C)c3)c3cn[nH]c23)nn1)C1CC(C)(C)NC(C)(C)C1 [Compound 326, 6-[5-fluoro-4-(1-methylpyrazol-4-yl)-1H-indazol-7-yl]-N-methyl-N-(2,2,6,6-tetramethylpiperidin-4-yl)pyridazin-3-amine] | 1000 to 10000 | 1000 to 10000 | 100 to 1000 | 100 to 1000 | 100 to 1000 | 100 to 1000 | 100 to 1000 | 100 to 1000 | < 100 |  |  |  |  |  |  |  |  |  |  | 
2 | c1n[nH]cc1-c1ccc(-c2ccc(O[C@@H]3C[C@H]4CC[C@@H](C3)N4)nn2)c2cn[nH]c12 [Compound 328] |  |  |  |  |  |  |  |  |  | > 10000 | > 10000 | > 10000 | > 10000 | > 10000 | > 10000 | > 10000 | > 10000 | > 10000 | 1000 to 10000 | 1000 to 10000
3 | CN(c1ccc(-c2ccc(-c3cn[nH]c3)c3[nH]ncc23)nn1)[C@@H]1C[C@H]2CC[C@@H](C1)N2 [Compound 329] |  |  |  |  |  |  |  |  |  | > 10000 | > 10000 | > 10000 | > 10000 | > 10000 | > 10000 | > 10000 | > 10000 | > 10000 | > 10000 | 1000 to 10000
4 | CN(c1ccc(-c2ccc(-c3cnn(C)c(=O)c3)c3ncsc23)nn1)C1CC(C)(C)NC(C)(C)C1 [Compound 331, 2-methyl-5-(7-{6-[methyl(2,2,6,6-tetramethylpiperidin-4-yl)amino]pyridazin-3-yl}-1,3-benzothiazol-4-yl) pyridazin-3-one] |  |  |  |  |  |  |  |  |  | > 10000 | > 10000 | 1000 to 10000 | 1000 to 10000 | 1000 to 10000 | 1000 to 10000 | 1000 to 10000 | 1000 to 10000 | 100 to 1000 | 1000 to 10000 | 100 to 1000
5 | c1cnn(-c2ccc(-c3ccc(O[C@@H]4C[C@H]5CC[C@@H](C4)N5)nn3)c3scnc23)c1 [Compound 334] |  |  |  |  |  |  |  |  |  | > 10000 | 1000 to 10000 | 100 to 1000 | 1000 to 10000 | 100 to 1000 | > 10000 | 1000 to 10000 | > 10000 | 100 to 1000 | 100 to 1000 | 100 to 1000
6 | CC1(C)CC(Oc2ccc(-c3ccc(-n4cccn4)c4ncsc34)nn2)CC(C)(C)N1 [Compound 335, 4-(pyrazol-1-yl)-7-{6-[(2,2,6,6-tetramethylpiperidin-4-yl)oxy]pyridazin-3-yl}-1,3-benzothiazole] |  |  |  |  |  |  |  |  |  | 1000 to 10000 | 1000 to 10000 | 1000 to 10000 | 1000 to 10000 | 1000 to 10000 | 1000 to 10000 | 1000 to 10000 | 1000 to 10000 | 100 to 1000 | 1000 to 10000 | 100 to 1000
7 | Cn1cc(-c2c(F)cc(-c3ccc(NC4CCNCC4)nn3)c3[nH]ncc23)cn1 [Compound 338] |  |  |  |  |  |  |  |  |  | > 10000 | 1000 to 10000 | 1000 to 10000 | 1000 to 10000 | 1000 to 10000 | 1000 to 10000 | 1000 to 10000 | 1000 to 10000 | 1000 to 10000 | 1000 to 10000 | 100 to 1000
8 | Cc1ncc(-c2ccc(-c3ccc(N(C)C4CC(C)(C)NC(C)(C)C4)nn3)c3scnc23)o1 [Compound 342] |  |  |  |  |  |  |  |  |  | 1000 to 10000 | 100 to 1000 | 100 to 1000 | 100 to 1000 | 100 to 1000 | 1000 to 10000 | 1000 to 10000 | 1000 to 10000 | 100 to 1000 | 100 to 1000 | < 100
9 | c1cnn(-c2ccc(-c3ccc(N[C@@H]4C[C@H]5CC[C@@H](C4)N5)nn3)c3scnc23)c1 [Compound 343] |  |  |  |  |  |  |  |  |  | 100 to 1000 | 100 to 1000 |  | 100 to 1000 | < 100 | 100 to 1000 | 100 to 1000 | 100 to 1000 | < 100 | 100 to 1000 | < 100
10 | CN(c1ccc(-c2ccc(-n3cccn3)c3ncsc23)nn1)[C@@H]1C[C@H]2CC[C@@H](C1)N2 [Compound 344] |  |  |  |  |  |  |  |  |  | 100 to 1000 | 100 to 1000 |  | 100 to 1000 | < 100 | 100 to 1000 | 100 to 1000 | 100 to 1000 | < 100 | 100 to 1000 | < 100
11 | CC(C)(C)NC1CCN(c2ccc(-c3ccc(-c4cn[nH]c4)c4ncsc34)nn2)C1 (stereo not drawn) [Compound 345, N-tert-butyl-1-{6-[4-(1H-pyrazol-4-yl)-1,3-benzothiazol-7-yl]pyridazin-3-yl} pyrrolidin-3-amine] | 1000 to 10000 | 1000 to 10000 | 1000 to 10000 | 1000 to 10000 | 1000 to 10000 | 1000 to 10000 | 100 to 1000 | 1000 to 10000 | 100 to 1000 |  |  |  |  |  |  |  |  |  |  | 
12 | c1cnn(-c2ccc(-c3ccc(N4CCC(NC5CC5)C4)nn3)c3scnc23)c1 (stereo not drawn) [Compound 346, N-cyclopropyl-1-{6-[4-(pyrazol-1-yl)-1,3-benzothiazol-7-yl]pyridazin-3-yl}pyrrolidin-3-amine] |  |  |  |  |  |  |  |  |  | > 10000 | > 10000 | > 10000 | > 10000 | > 10000 | > 10000 | > 10000 | > 10000 | 1000 to 10000 | 1000 to 10000 | > 10000
13 | c1cnn(-c2ccc(-c3ccc(N4CCC(NC5CC5)C4)nn3)c3[nH]ncc23)c1 (stereo not drawn) [Compound 347, N-cyclopropyl-1-{6-[4-(pyrazol-1-yl)-1H-indazol-7-yl]pyridazin-3-yl}pyrrolidin-3-amine] |  |  |  |  |  |  |  |  |  | > 10000 | > 10000 | > 10000 | > 10000 | > 10000 | > 10000 | > 10000 | > 10000 | 1000 to 10000 | 1000 to 10000 | 1000 to 10000
14 | Cc1cc(-c2ccc(-c3ccc(O[C@@H]4C[C@H]5CC[C@@H](C4)N5)nn3)c3scnc23)ccn1 [Compound 349] |  |  |  |  |  |  |  |  |  | 1000 to 10000 | 1000 to 10000 | 1000 to 10000 | 1000 to 10000 | 1000 to 10000 | 1000 to 10000 | > 10000 | 1000 to 10000 | 100 to 1000 | 100 to 1000 | < 100
15 | Cl.Fc1cc(-c2ccc(NC3CCNCC3)nn2)c2[nH]ncc2c1-c1cn[nH]c1 [Compound 350, 6-[5-fluoro-4-(1H-pyrazol-4-yl)-1H-indazol-7-yl]-N-(piperidin-4-yl)pyridazin-3-amine hydrochloride] |  |  |  |  |  |  |  |  |  | > 10000 | > 10000 | > 10000 | > 10000 | > 10000 | > 10000 | > 10000 | > 10000 | > 10000 | 1000 to 10000 | > 10000
16 | CN(c1ccc(-c2cc(F)c(-c3cn[nH]c3)c3cn[nH]c23)nn1)[C@@H]1C[C@H]2CC[C@@H](C1)N2 [Compound 351] |  |  |  |  |  |  |  |  |  | 100 to 1000 | 100 to 1000 |  | < 100 | < 100 | 100 to 1000 | 100 to 1000 | 100 to 1000 | < 100 | 100 to 1000 | < 100
17 | c1nc2c(-c3cn[nH]c3)ccc(-c3ccc(N[C@H]4C[C@H]5COC[C@@H](C4)N5)nn3)c2s1 [Compound 353] |  |  |  |  |  |  |  |  |  | 1000 to 10000 | > 10000 | > 10000 | 1000 to 10000 | > 10000 | 1000 to 10000 | > 10000 | 1000 to 10000 | 1000 to 10000 | 1000 to 10000 | 1000 to 10000
